A short description of series [1]: Colour strength on storage of pigment powder, tested in alkyd paint system. Format: physicochemical. Here is the method:
The dried pigments are incorporated in a conventional manner into an alkyd paint system (SORBAL®P470, an alkyd resin ex DSM resins Ltd. having a solids content of 70%, white spirit, pigment and driers solution).
The dried powders are each divided into two portions. One portion is tested in the paint system immediately after drying. […] The tinting strengths are assessed visually and instrumentally.
The values correspond to the instrumentally-measured colour strength for the same pigment content in the paint.

The test system of series [2] is mixed culture of Gram-positive cocci, Gram-negative cocci, Gram-positive rods and Gram-negative rods. The series can be described thus: Microbial contamination of dried Pigment Yellow 65 powder (Example 2 procedure) after mixing filter cake with bacterial culture. The format is cell-based, bacteria. The procedure:
(§1) Susceptibility to microbial contamination is assessed according to the following procedure:
(§2) Microbial contamination is assessed using individual bacteria of the morphological types, Gram-positive cocci, Gram-negative cocci, Gram-positive rods and Gram-negative rods which are maintained on Nutrient Agar slopes. When required, each is cultured in Nutrient broth at 30° C. until an organism count of >10^8 colony-forming units (cfu) per milliliter (ml) is reached. The individual cultures are then mixed in equal proportions to provide a mixed culture which is then used immediately.
(§3) 10 mg of the sieved powder and one drop of sterile water are evenly spread on a Nutrient Agar plate with a glass spreader under aseptic conditions and the plate incubated at 30° C. for 48 hours, The number of bacterial colonies evident on each plate are then counted and expressed as the number of colony-forming units per gram (cfu/g).
(§4) 23.3 parts of acetic acid (100%) are added to a solution of 55 parts of acetoacet-o-anisidide dissolved in a solution of 25.5 parts of sodium hydroxide (47%) in 450 parts of water at a temperature of 0° C. The resultant slurry is reacted with 42.5 parts of o-nitro-p-anisidine previously diazotised with 45.4 parts of sodium nitrite (37%) and 56 parts of hydrochloric acid (36%) in the usual manner with simultaneous addition of sodium hydroxide solution (10%) to maintain pH 5.5-6.0. To the coupled slurry are then added 3 parts of dibutyl sebacate and 1 part of dimethylbenzyl-C12-14alkylammonium chloride (100% active) and the mixture is heated to a temperature of 100° C. and maintained at this temperature for one hour. The product is then filtered and washed with water under vacuum to remove soluble salts. The filter cake (still under vacuum suction) is mixed with a bacterial culture (10 ml of culture diluted to 100 ml with water) and vacuum suction is maintained until no further liquid emanates from the filter cake. The filter cake, without further washing, is then dried and converted to a powder by grinding. The powder is then passed through a 150 micron sieve.
The procedure described in Example 2 is repeated, but varying the type of biocide and amount of biocide used.
The procedure described in Example 2 is repeated, but varying the type of biocide and amount of biocide used and omitting the DBS.

Series [3] has the same test system. The series is described as follows: Microbial contamination of dried Pigment Yellow 74 powder (Example 1 procedure) after mixing filter cake with bacterial culture. The format is cell-based, bacteria. The procedure:
as §1, §2
as §4, with “(80%)” for “(100%)”, “p-nitro-o-anisidine” for “o-nitro-p-anisidine”, “cake(still” for “cake (still”, “water)and” for “water) and”
The procedure described in Example 1 is repeated, but varying the type of biocide and amount of biocide used. The procedure for determining the extent of microbial contamination is as follows:
as §3

The test system is the same in series [4]. The description is as above. The format is cell-based, bacteria. The source holds these as a separate data set.
The test system is the same in series [5]. The series is described as follows: Microbial contamination of dried Pigment Yellow 13 powder (Example 5 procedure) after mixing filter cake with bacterial culture. The format is cell-based, bacteria. The note with it: PY13, no DBS. Here is the method: as §1, §2, §3
A solution of 8.9 parts of acetic acid (100%) and 15 parts hydrochloric acid (36%) in 100 parts water are added to a solution of 63 parts of acetoacet-m-xylidide dissolved in a solution of 25.2 parts of sodium hydroxide (50%) in 676 parts of water at a temperature of 20° C. The resultant slurry is reacted with 36.9 parts of a previously tetrazotised solution of 3,3′-dichlorobenzidine, with simultaneous addition of sodium hydroxide solution (10%) to maintain pH 4.5-5.5. […] The product is then filtered and washed with water under vacuum to remove soluble salts. The filter cake (still under vacuum suction) is mixed with a bacterial culture (10 ml of culture diluted to 100 ml with water) and vacuum suction is maintained until no further liquid emanates from the filter cake. The filter cake, without further washing, is then dried and converted to a powder by grinding. The powder is then passed through a 150 micron sieve.

Where [6] appears, read: PY65, omitting the DBS, 0.5 parts biocide.
Where [7] appears, read: PY65, omitting the DBS, 1.0 parts biocide.
Where [8] appears, read: PY65, omitting the DBS, 3.0 parts biocide.
The mark [9] stands for this setting: PY65, omitting the DBS, 5.0 parts biocide.
Setting [10] is: PY65, with 3 parts dibutyl sebacate, 0.5 parts biocide.
Setting [11] is: PY65, with 3 parts dibutyl sebacate, 1.0 parts biocide.
[12] abbreviates: PY65, with 3 parts dibutyl sebacate, 3.0 parts biocide.
Setting [13] is: PY65, with 3 parts dibutyl sebacate, 5.0 parts biocide.
[14] abbreviates: PY74, 3 parts dibutyl sebacate, 0.5 parts biocide, plate 30° C. 48 hours.
[15] abbreviates: PY74, 3 parts dibutyl sebacate, 1.0 parts biocide, plate 30° C. 48 hours.
The mark [16] stands for this setting: PY74, 3 parts dibutyl sebacate, 3.0 parts biocide, plate 30° C. 48 hours.
Where [17] appears, read: PY74, 3 parts dibutyl sebacate, 5.0 parts biocide, plate 30° C. 48 hours.

Values joined by “and” are separate entries in the source; they are usually repeats but may differ in a detail not shown here. Identical values can stand only once.

Regarding `COc1cc([N+](=O)[O-])ccc1/N=N/C(C(C)=O)C(=O)Nc1ccccc1OC` (centres unmarked) [C.I. Pigment Yellow 74], in series [1] (initial versus last storage time at ambient temperature), the loss of strength is 36 and 26 and 42. Also, the “amount of Pigment required, 3 weeks” value in series [1] (powder stored at ambient temperature 3 weeks) is 105 and 104. Further, the “amount of Pigment required, 6 weeks” value in series [1] (powder stored at ambient temperature 6 weeks) is 105 and 108. In series [1] (powder tested immediately after drying, instrumentally-measured colour strength), the “colour strength, initial” value was 141 and 134 and 146.
As for “Benzyldimethyl-C12-14-alkylammonium chloride [KLC]”, the “microbial contamination, colony-forming units per gram” value (shortened to “microbial contamination … per gram”) was 1.3 × 10^4 cfu/g in series [2] (setting [6]); 0 cfu/g in series [2] (setting [7]); 0 cfu/g in series [2] (setting [8]); 0 cfu/g in series [2] (setting [9]); 2.7 × 10^3 cfu/g in series [2] (setting [10]); 0 cfu/g in series [2] (setting [11]). The “microbial contamination … per gram” value in series [2] (setting [12]) is 0 cfu/g; in series [2] (setting [13]), 0 cfu/g; in series [3] (PY74, 3 parts DBS + 1 part KLC), 0 cfu/g; in series [3] (PY74, 3 parts dibutyl sebacate, 0.1 parts biocide, plate 30° C. 48 hours), >10^4 cfu/g; in series [3] (setting [14]), 0 cfu/g; in series [3] (setting [15]), 0 cfu/g. Further, the “microbial contamination … per gram” value is on record as 0 cfu/g in series [3] (setting [16]); 0 cfu/g in series [3] (setting [17]); 0 cfu/g in series [4] (PY74, 0 parts DBS + 1 part KLC); 0 cfu/g in series [4] (PY74, 1 parts DBS + 1 part KLC); 0 cfu/g in series [4] (PY74, 2 parts DBS + 1 part KLC); >10^4 cfu/g in series [5] (0.5 parts biocide). The results for the “microbial contamination … per gram” value in series [5] (1.0 parts biocide), in series [5] (3.0 parts biocide) and in series [5] (5.0 parts biocide) were >10^4 cfu/g, 0 cfu/g and 0 cfu/g, respectively.
“Tetrakishydroxymethylphosphonium sulphate [THPS]”: the “microbial contamination … per gram” value in series [2] (setting [6]), in series [2] (setting [7]), in series [2] (setting [8]), in series [2] (setting [9]), in series [2] (setting [10]) and in series [2] (setting [11]) was >10^5 cfu/g in each case. For the same compound, the “microbial contamination … per gram” value in series [2] (setting [12]), in series [2] (setting [13]), in series [3] (setting [14]), in series [3] (setting [15]), in series [3] (setting [16]) and in series [3] (setting [17]) was >10^5 cfu/g in each case. In addition, the “microbial contamination … per gram” value in series [5] (0.5 parts biocide), in series [5] (1.0 parts biocide), in series [5] (3.0 parts biocide) and in series [5] (5.0 parts biocide) was >10^4 cfu/g each time.

These data come from patent publication US6361595B1, “Process for the preparation of pigment compositions” (Ciba Specialty Chemicals Corporation, priority 1999, dated 2002).
